Results published in a melting point compilation (Tetko et al.).

melting point [°C] | SMILES
155 to 157 | Clc1nc(-c2cccnc2)nc2scc(-c3ccccc3)c12
149 to 151 | CN(CC(N)=S)C(=O)c1ccccc1
80 to 82 | COc1cccc2c1OCCC2=O
96 to 98 | CC(CC(N)=NO)NC(=O)OC(C)(C)C (stereo not drawn)
185 to 187 | Nc1cc(-c2ccco2)nn1-c1cccc([N+](=O)[O-])c1
158 to 165 | NC(=O)Cc1csc(N)n1
162 to 166 | NS(=O)(=O)c1ccc2c(c1)CCN2
64 to 66 | Cc1ccc(Oc2cccc(N(C)C)c2)c(N)c1
181 to 183 | Nc1nc2c(s1)CC(c1ccccc1)CC2 (stereo not drawn)
174 to 176 | Cc1cnnc(N)n1
172 to 174 | COc1c(C(=O)O)c(C)nn1C
160 to 162 | CCOc1cccc2c1OCC(C(=O)O)C2 (stereo not drawn)
62 to 64 | COC(=O)c1oc(Br)cc1C
108 to 110 | CNC(=O)c1ccc(OC)c(N)c1
96 to 98 | Oc1ccc(-c2noc(C3CCCO3)n2)cc1 (stereo not drawn)
206 to 208 | CS(=O)(=O)c1ncc[nH]1
84 to 86 | N#CCc1cccc2cccnc12
90 to 92 | Nc1ncc(Cl)s1
48 to 50 | OCCn1ncc2ccccc21
137 to 139 | N#CCS(=O)(=O)N1CCCCC1
149 to 151 | Cc1cccc2c(CCC(=O)O)c[nH]c12
123 to 125 | O=C(O)c1ccnc(OC2CCCCC2)c1
110 to 112 | Nc1cccnc1-n1cncn1
155 to 156 | O=C(O)c1ccccc1-n1ncc(Cl)c(Cl)c1=O

melting point [°C] | SMILES
174 to 176 | CCOc1cc(-c2ccccc2)sc1C(=O)O
42 to 44 | Cc1c(C(C)N)cnn1-c1ccc(F)cc1 (stereo not drawn)
91 to 93 | CNS(=O)(=O)CC1CCCN1 (stereo not drawn)
100 to 102 | O=C(CCl)N1CCN(c2ncccn2)CC1
250 to 252 | CCC1Nc2ccc(C(=O)O)cc2NC1=O (stereo not drawn)
164 to 166 | Cc1cc(C)cc(C2(C(=O)O)CC2)c1
168 to 170 | COc1cccc(NC(=S)NN)c1
71 to 73 | CCCCS(=O)(=O)Nc1ccc(F)c(N)c1
180 to 185 | CC(=O)c1ccc2c(c1)Nc1ccccc1S2
245 to 247 | O=C(O)c1cc(S(=O)(=O)NCc2cccnc2)c(Cl)cc1Cl
143 to 145 | CC(C)c1nc(-c2cccc3ncccc23)n[nH]1
47 to 49 | Cc1ccc(C(=O)C2CC2)cc1
157 to 159 | O=C1C(=O)N(CN2CCN(CCO)CC2)c2ccccc21
177 to 179 | Nc1ccc(Oc2ccc(Cl)cc2)cc1C(=O)O
77 to 79 | O=C(Cc1ccccc1Cl)NCCCO
89 to 91 | COc1cc(Br)c(C=O)c(OC)c1
245 to 247 | CC(=O)Nc1cnc(NC(C)=O)s1
162 to 164 | O=C(CCl)N(C1CCCCC1)C1CCS(=O)(=O)C1 (stereo not drawn)
62 to 64 | CCOC(=O)CS(N)(=O)=O
50 to 52 | Oc1ccc(OC2CCCC2)cc1
18 to 20 | CC(Cl)C(=O)c1ccc(C(C)(C)C)cc1 (stereo not drawn)
67 to 69 | CC(C)(C)Sc1ccc(N)cc1
123 to 125 | CC(C)C(Br)C(=O)Nc1ccccc1C(F)(F)F (stereo not drawn)
257 to 259 | CN(C)S(=O)(=O)c1cc(C(=O)O)ccc1Br

melting point [°C] | SMILES
189 to 191 | CCn1c(N)nc2cc(C#N)ccc21
163 to 165 | COC(=O)c1cc([N+](=O)[O-])ccc1N
40 to 42 | CN1CCCN(c2ccc(C#N)cc2Cl)CC1
77 to 79 | COc1ncc(C)cc1N
191 to 193 | Cc1nc2ccccc2n1Cc1cc(N)ccc1Cl
198 to 200 | COC(=O)c1cc2c(F)cc(F)cc2[nH]1
110 to 112 | CC(=O)NC1CCCN(C(=O)CCl)C1 (stereo not drawn)
162 to 164 | O=C(O)c1cc(Cl)ccc1I
119 to 121 | NC(=O)CCSc1ccc(F)cc1
86 to 88 | COC(=O)C(=O)CC(=O)c1ccc(C)cc1
119 to 121 | Cc1ccc(-c2cc(CS(=O)(=O)Cl)on2)cc1
62 to 64 | COC(=O)c1ccc(F)cc1N
111 to 113 | CC1=C(C(=O)O)C(=O)OC1(C)C
156 to 158 | NC(=O)c1ncon1
213 to 215 | Nc1cc2c(c(C(=O)O)c1)OCCO2
162 to 164 | Cc1nn(-c2ccccc2)c(C)c1C(O)C(F)(F)F (stereo not drawn)
106 to 108 | NNC(=O)Cc1cccc(F)c1
65 to 67 | COc1ccccc1CNCCO
91 to 93 | Cc1cccc(NCCC(N)=O)c1
146 to 148 | COc1cc(C#N)ccc1OCCCC(=O)O
251 to 253 | CC(=O)Oc1cccc2ccc(O)nc12
228 to 230 | Cc1ccc(S(=O)(=O)N(C)CC(=O)O)cc1
164 to 166 | COc1ccc2cc(-c3nn(-c4ccccc4)cc3C=O)ccc2c1
244 to 246 | Oc1ccc(-c2nnc[nH]2)cc1

melting point [°C] | SMILES
136 to 138 | Nc1nonc1C(=O)N1CCOCC1
69 to 71 | CCCCCCCC(=O)NCCCC(=O)O
105 to 107 | Cc1ccc(CC(=O)O)cc1O
285 to 287 | O=C(O)c1ccc(N2CC=CC2)cc1
149 to 151 | Nc1ccccc1NC(=O)c1ccccc1
268 to 270 | Nc1cccc2c1C(=O)NC2=O
124 to 126 | CN(C)C1CCN(c2ccc(N)cc2F)CC1
35 to 37 | O=[N+]([O-])c1ccn(CCCBr)n1
138 to 140 | CC1(C)CCc2c(sc(N)c2C(=O)N2CCOCC2)C1
59 to 61 | CCC1CCc2[nH]c3ccc(C)cc3c2C1 (stereo not drawn)
90 to 92 | CS(=O)(=O)c1ccsc1N
166 to 168 | Nc1ccc(NC(=O)c2cccs2)cc1
139 to 141 | O=C(O)c1cc(Cl)no1
279 to 281 | O=C(O)c1c2c(nc3ccccc13)C(=Cc1ccccc1)CC2
158 to 160 | Cc1cc(Oc2ncccc2C#N)ccc1N
228 to 232 | Cc1ccc2c(c1C)NC(=O)C2=O
181 to 185 | NC(=O)N1CCCC(C(=O)O)C1 (stereo not drawn)
43 to 45 | NC1c2ccccc2-c2ccccc21
120 to 122 | NC(=O)NCc1ccco1
89 to 91 | COc1ccc(Cl)cc1-n1cc(S(=O)(=O)Cl)cn1
74 to 76 | COC(=O)CC1CCCCC1=NO (stereo not drawn)
106 to 108 | COc1ccc(C(C)=O)cc1CSCC(=O)O
66 to 68 | COC(=O)c1cc(F)cc(OC)c1N
44 to 46 | NCc1ccnc(-n2cccn2)c1

melting point [°C] | SMILES
161 to 163 | CC(=O)Oc1ccc(C(=O)Nc2ccccc2)cc1
99 to 101 | CCCS(=O)(=O)Nc1cccc(N)c1C
102 to 104 | O=C(CO)NCc1ccc(F)cc1
91 to 93 | CCOC(=O)c1ccn(C)c(=O)c1
297 to 299 | O=C(O)c1ccc(S(=O)(=O)Nc2ccncc2)cc1
127 to 129 | Cc1ccc2c(CCC(=O)O)c[nH]c2c1
105 to 107 | COCC(=O)c1cccc([N+](=O)[O-])c1
122 to 124 | CC(C)(C)OC(=O)N1CCc2c(N)cccc2C1
61 to 63 | C=CCNC(=S)N1CCOCC1
156 to 158 | N#Cc1c(F)cccc1Oc1ccc(N)cc1
93 to 95 | O=C(O)c1cc(Cl)cc(Cl)n1
121 to 123 | CC(C)Oc1ccc(S(N)(=O)=O)cc1
199 to 201 | O=C(O)c1cc(-c2ccccc2)nc2onc(C3CC3)c12
146 to 148 | COc1cccc(C(N)=S)c1OC
64 to 66 | CCCS(=O)(=O)NC(C)C(=O)O (stereo not drawn)
349 to 351 | Cc1cc(Br)cc2c(O)c(C#N)cnc12
129 to 131 | CS(=O)(=O)c1cccc(C(=O)c2ccc(F)cc2F)c1
105 to 107 | NC(=O)CCc1ccc(F)cc1
70 to 72 | Cc1cccc(C)c1OCCO
35 to 37 | Cc1ccc(SCCC(=O)O)cc1C
127 to 129 | Cc1ccccc1-n1c(C)cc(C(=O)O)c1C
190 to 194 | Cn1c(S)nc2ccccc21
84 to 86 | O=[N+]([O-])c1c(F)ccc2ncccc12
309 to 311 | Cc1ccc(C(=O)O)cc1NC(=O)c1ccc(Br)cc1

melting point [°C] | SMILES
101 to 103 | Cc1cc(Sc2nccn2C)ccc1N
207 to 209 | COc1cc(NC(=O)C2CC2C)c(C(=O)O)cc1OC (stereo not drawn)
119 to 121 | CC(C)CCNC(=O)C1CCN(C(=O)CCl)CC1
290 to 292 | O=C1NCNC(=O)N1
169 to 171 | O=C(O)c1ccccc1SCC(F)(F)F
129 to 131 | CCOc1cccc(S(N)(=O)=O)c1
58 to 60 | CCCOc1ccc(C=O)c(OCCC)c1
249 to 251 | Cc1csc2ncc(C(=O)O)c(=O)n12
119 to 121 | O=C(O)c1noc(-c2ccccc2Cl)n1
141 to 143 | Cc1ccc2c(c1)C(=O)N(C(C)C(=O)O)C2=O (stereo not drawn)
284 to 286 | Cc1cc(C(=O)O)c2cnn(C)c2n1
69 to 71 | Cc1ccc(Oc2ccc(C#N)cc2)cc1
119 to 162 | CN(C)S(=O)(=O)c1ccc(N)cc1
190 to 192 | Nc1cc(Br)c[nH]c1=S
124 to 126 | NC(=NO)c1ccc(Br)s1
202 to 204 | Nn1c(S)nnc1-c1ccc(Br)cc1
146 to 148 | O=C(O)c1cc(F)ccc1I
99 to 101 | COC(=O)c1cc2ccccc2cc1N
133 to 135 | Nc1ccccc1C(=O)Nc1cccc(C(F)(F)F)c1
88 to 92 | COC(=O)c1sc(S(=O)(=O)Cl)c(C(=O)OC)c1C
73 to 75 | Cc1ccc(C)c(SCC(=O)O)c1
151 to 153 | NNc1cc(Cl)ncn1
42 to 44 | ClCc1nc(-c2ccc(Br)s2)no1

SMILES | melting point [°C]
CC(C)C(CN)C(=O)O (stereo not drawn) | 249 to 251
O=C(O)C1CC2CCC(C1)N2C1CC1 (stereo not drawn) | 156 to 158
Nc1nnns1 | 120 to 122
O=S1(=O)CCNCC12CCCCC2 | 99 to 101
CCCCCCNC(=O)CCl | 29 to 31
